Test results reported in patent US20260271925A1, “DYSREGULATION OF PLANKTONIC BACTERIAL METABOLISM” (Lixa Limited, priority 2023, published 2026).
Converted amounts (≈) assume the structure as drawn.

How the values were obtained:
[1] = cited from earlier work
S. pneumoniae D39 [2] = assay: Resazurin reduction for the evaluation of metabolic activity (Example 2); format: cell-based, Streptococcus pneumoniae; settings: plus 10 mM D-Lactic acid
Method: (§1) Bacterial strains were maintained as suspensions in 20% (v/v) glycerol/Brain-Heart Infusion at −80° C.
(§2) Aerobic respiration was measured in the presence or absence of D-Lactic acid and the presence or absence of companion antibiotics either following incubation and visual recording of the MIC, or in a separate study. For evaluation after completion of MIC determination, the entire volume of the MIC well (100 μl) was mixed by pipetting up and down, then transferred to the equivalent well of a fluorescence-absorbance suitable 96-well plate. Alternatively, cultures were pipetted together as above and incubated overnight at 37° C. in the absence of any antimicrobial compounds. Culture supernatants were removed, adherent cells washed and then treated by the addition of 100 μL of fresh broth, 50 μL of broth containing 4×the desired concentration of antibiotic and 50 μL containing 4×the desired concentration of D-Lactic acid or vehicle only controls, followed by incubation at 37° C. for a further 18±2 hours. After incubation regimes were completed for both procedures, resazurin reduction was evaluated by adding 10 μl of a 0.02% resazurin solution to every well, and incubating the plates with gentle shaking (40 rpm) for a further 90 minutes at 37° C. 96-well plates and resazurin were protected from light as much as possible.
(§3) Following incubation, the 96-well trays were read on a fluorescence-absorbance spectrophotometer, using an excitation frequency of 565 nm and emission frequency of 590 nm. The value for each well was blanked by subtracting the value of the negative control. Every value was then converted to a ratio with respect to the mean value of the positive controls.

S. aureus 510 (MRSA) [3] = assay: as above; format: cell-based, Staphylococcus aureus
Method: as §1, §2, §3

S. aureus 29213 (MSSA) [4] = assay: as above; format: cell-based, Staphylococcus aureus; settings: plus 10 mM D-Lactic acid
Method: as §1, §2, §3

S. aureus 510 (MRSA) [5] = assay: Minimum inhibitory concentration by broth microdilution (Example 2); format: cell-based, Staphylococcus aureus; settings: unit assumed; for MIC + 1 mM D-Lactic acid: antibiotic + 1 mM D-Lactic acid; for MIC + 10 mM D-Lactic acid: antibiotic + 10 mM D-Lactic acid; for MIC: antibiotic alone
Method: as §1
(§4) A standard inoculum was prepared from broth culture.
(§5) The broth culture was diluted in broth to a turbidity equal to a 0.5 McFarland Standard using a spectrophotometer at a wavelength of 620 nm. The 0.5 McFarland Standard was further diluted 1:100 in broth to create the standard inoculum. 50 μl of this standard inoculum was dispensed into every well in the microtitre tray, except the negative controls, where 50 μl of broth was dispensed instead.
(§6) Next, a working concentration at two times the highest target concentration for every antimicrobial was created in broth from stock solutions. 100 μl of this working concentration was pipetted into the first well, and 50 μl of broth media into all other wells. 50 μl of the first well was pipetted out and serially diluted across all wells in the row until the final concentration in the range achieved. 50 μl from the final well was removed and discarded. This produced a concentration range where each well was double the target concentration. All agents were performed in duplicate.
(§7) 96 well trays were incubated at 37° C. for 18±2 hours.

S. aureus 29213 (MSSA) [6] = assay: as above; format: cell-based, Staphylococcus aureus; settings: for MIC + 1 mM D-Lactic acid: antibiotic + 1 mM D-Lactic acid; for MIC + 10 mM D-Lactic acid: antibiotic + 10 mM D-Lactic acid
Method: as §1, §4, §5, §6, §7

S. pneumoniae D39 [7] = assay: as above; format: cell-based, Streptococcus pneumoniae; settings: for MIC + 1 mM D-Lactic acid: antibiotic + 1 mM D-Lactic acid; for MIC + 10 mM D-Lactic acid: antibiotic + 10 mM D-Lactic acid; for MIC: antibiotic alone
Method: (§8) Bacterial strains were maintained as suspensions in 20% (v/v) glycerol/Brain-Heart Infusion at −80° C. For use, a loop-full of ice was scraped from the stock and streaked for single colonies on rich media containing 1.8% agar (for Pseudomonas aeruginosa or Klebsiella pneumoniae, Luria-Bertani medium; for Staphylococcus aureus or Streptococcus pneumoniae, Trypticase Soy agar) and incubated overnight at 37° C.
(§9) A standard inoculum was prepared from broth culture. 1 to 3 colonies from an overnight agar culture plate were transferred to 5 ml of broth media and incubated at 37° C. with shaking (200 rpm) until turbidity was greater than that of a 0.5 McFarland Standard (overnight). The following broth media were used: Cation-adjusted Mueller-Hinton broth (caMHB—all strains); Roswell Park Memorial Institute medium (RPMI 1640, phenol red-free—S. aureus); Trypticase Soya Broth (TSB—S. aureus, S. pneumoniae); Todd Hewitt Broth (THB—S. pneumoniae), M63 minimal medium, supplemented with 0.2% glucose (M63—K. pneumoniae).
as §5, §6, §7

P. aeruginosa WACC91 = assay: as above; format: cell-based, Pseudomonas aeruginosa
Method: as §8, §9, §5, §6, §7

Compound | MIC + 1 mM D-Lactic acid (S. aureus 510 (MRSA) [5]) [µg/mL] | MIC + 10 mM D-Lactic acid (S. aureus 510 (MRSA) [5]) [µg/mL] | MIC (S. aureus 510 (MRSA) [5]) [µg/mL] | MIC + 1 mM D-Lactic acid (S. aureus 29213 (MSSA) [6]) | MIC + 10 mM D-Lactic acid (S. aureus 29213 (MSSA) [6]) | MIC + 1 mM D-Lactic acid (S. pneumoniae D39 [7]) | MIC + 10 mM D-Lactic acid (S. pneumoniae D39 [7]) | MIC (S. pneumoniae D39 [7]) | MIC + 1 mM D-Lactic acid (P. aeruginosa WACC91; antibiotic + 1 mM D-Lactic acid) | MIC + 10 mM D-Lactic acid (P. aeruginosa WACC91; antibiotic + 10 mM D-Lactic acid) | MIC (P. aeruginosa WACC91; antibiotic alone) | Water solubility* [1] [mM] | Relative metabolic activity, antibiotic plus D-Lactic acid versus antibiotic only (S. pneumoniae D39 [2]) | Relative metabolic activity, antibiotic plus D-Lactic acid versus antibiotic only (S. aureus 510 (MRSA) [3]; plus 1.0 mM D-Lactic acid) | Relative metabolic activity, antibiotic plus D-Lactic acid versus antibiotic only (S. aureus 29213 (MSSA) [4]) | Relative metabolic activity, antibiotic plus D-Lactic acid versus antibiotic only (S. aureus 510 (MRSA) [3]; plus 10 mM D-Lactic acid) | Relative metabolic activity, antibiotic plus D-Lactic acid versus antibiotic only (S. aureus 510 (MRSA) [3]; plus 0.1 mM D-Lactic acid)
CCCC(O)C(=O)O (centres unmarked) [2-hydroxypentanoic acid] | – | – | – | – | – | – | – | – | – | – | – | 1640 | – | – | – | – | –
CN[C@H](CC(C)C)C(=O)N[C@H]1C(=O)N[C@@H](CC(N)=O)C(=O)N[C@H]2C(=O)N[C@H]3C(=O)N[C@H](C(=O)N[C@H](C(=O)O)c4cc(O)cc(O)c4-c4cc3ccc4O)[C@H](O)c3ccc(c(Cl)c3)Oc3cc2cc(c3O[C@@H]2O[C@H](CO)[C@@H](O)[C@H](O)[C@H]2O[C@H]2C[C@](C)(N)[C@H](O)[C@H](C)O2)Oc2ccc(cc2Cl)[C@H]1O [vancomycin] | 2 | 2 | 8 (≈ 5.52 µM) | 4.0 | 2.0 | – | – | – | – | – | – | – | enhances metabolic activity suppression | enhances metabolic activity suppression | enhances metabolic activity suppression | – | –
C[C@@H](O)[C@H]1C(=O)N2C(C(=O)O)=C(S[C@@H]3CN[C@H](C(=O)N(C)C)C3)[C@H](C)[C@H]12 [meropenem] | 2 | 2 | > 4 | 0.5 | 0.5 | 0.25 | 0.5 | 0.5 | <0.5 | <0.5 | 1.0 | – | – | – | enhances metabolic activity suppression | enhances metabolic activity suppression | –

Continued, in another order:

MIC + 1 mM D-Lactic acid (S. aureus 510 (MRSA) [5]) [µg/mL] | MIC + 10 mM D-Lactic acid (S. aureus 510 (MRSA) [5]) [µg/mL] | MIC (S. aureus 510 (MRSA) [5]) [µg/mL] | MIC + 1 mM D-Lactic acid (S. aureus 29213 (MSSA) [6]) | MIC + 10 mM D-Lactic acid (S. aureus 29213 (MSSA) [6]) | MIC + 1 mM D-Lactic acid (S. pneumoniae D39 [7]) | MIC + 10 mM D-Lactic acid (S. pneumoniae D39 [7]) | MIC (S. pneumoniae D39 [7]) | MIC + 1 mM D-Lactic acid (P. aeruginosa WACC91; antibiotic + 1 mM D-Lactic acid) | MIC + 10 mM D-Lactic acid (P. aeruginosa WACC91; antibiotic + 10 mM D-Lactic acid) | MIC (P. aeruginosa WACC91; antibiotic alone) | Compound | Water solubility* [1] [mM] | Relative metabolic activity, antibiotic plus D-Lactic acid versus antibiotic only (S. pneumoniae D39 [2]) | Relative metabolic activity, antibiotic plus D-Lactic acid versus antibiotic only (S. aureus 510 (MRSA) [3]; plus 1.0 mM D-Lactic acid) | Relative metabolic activity, antibiotic plus D-Lactic acid versus antibiotic only (S. aureus 29213 (MSSA) [4]) | Relative metabolic activity, antibiotic plus D-Lactic acid versus antibiotic only (S. aureus 510 (MRSA) [3]; plus 10 mM D-Lactic acid) | Relative metabolic activity, antibiotic plus D-Lactic acid versus antibiotic only (S. aureus 510 (MRSA) [3]; plus 0.1 mM D-Lactic acid)
– | – | – | – | – | 4.0 | 4.0 | >16.0 | – | – | – | CC1(C)S[C@@H]2[C@H](NC(=O)[C@H](N)c3ccccc3)C(=O)N2[C@H]1C(=O)O [ampicillin] | – | enhances metabolic activity suppression | – | – | – | –
2 | 2 | > 16 | 0.5 | 0.5 | – | – | – | – | – | – | COc1cccc(OC)c1C(=O)N[C@@H]1C(=O)N2[C@@H]1SC(C)(C)[C@@H]2C(=O)O [methicillin] | – | – | – | enhances metabolic activity suppression | enhances metabolic activity suppression | –
– | – | – | <1.0 | 2.0 | 0.25 | 0.25 | 0.5 | – | – | – | CC1(C)S[C@@H]2[C@H](NC(=O)[C@H](N)c3ccc(O)cc3)C(=O)N2[C@H]1C(=O)O [amoxicillin] | – | enhances metabolic activity suppression | – | – | – | –
8 | 8 | 16 (≈ 28.9 µM) | 4.0 | 4.0 | – | – | – | – | – | – | CO/N=C(\C(=O)N[C@@H]1C(=O)N2C(C(=O)O)=C(CSc3nc(=O)c(=O)[nH]n3C)CS[C@H]12)c1csc(N)n1 [ceftriaxone] | – | enhances metabolic activity suppression | – | enhances metabolic activity suppression | – | enhances metabolic activity suppression
